In ChEMBL document CHEMBL5046262, “Fragment-Based Discovery of MRTX1719, a Synthetic Lethal Inhibitor of the PRMT5•MTA Complex for the Treatment of MTAP-Deleted Cancers” (J Med Chem, 2022):
“And” between values parts separate entries of the source, which are not always exact repeats. Identical values can stand only once.

Assays:
[1] = Efflux ratio of apparent permeability across basolateral to apical side over apical to basolateral side in dog MDCKII-MDR1 cells at 2 uM incubated for 2.5 hrs by LC-MS/MS analysis; type: ADME, cell-based, Canis lupus familiaris, MDCK-MDR1; details: for efflux ratio at 2.5 h, 2 µM: MDCK-MDR1; for Ratio: mdck-mdr1, 2.5 h, 2 µM, 2.5 h
[2] = Apparent permeability across apical to basolateral side in dog MDCKII-MDR1 cells at 2 uM incubated for 2.5 hrs by LC-MS/MS analysis; type: ADME, cell-based, Canis lupus familiaris, MDCK-MDR1; details: for Papp A→B at 2.5 h, 2 µM: MDCK-MDR1
[3] = Intrinsic clearance in human hepatocytes; type: ADME, cell-based, Hepatocyte; details: read-out: CLH
[4] = test system: HCT-116; test: Antiproliferative activity against human HCT-116 cells expressing wild type MTAP assessed as reduction in cell viability incubated for 5 days followed by replacement with fresh medium containing compound and measured after 5 days by CTG assay; type: functional, cell-based
[5] = target: T1, Protein arginine N-methyltransferase 5 (Homo sapiens, UniProt O14744); test: Inhibition of PRMT5 methyltransferase activity in MTAP knockout human HCT-116 cells assessed as inhibition of PRMT5- mediated SDMA modification level incubated for 96 hrs by Western blot analysis; type: cell-based
[6] = test system: HCT-116; test: Antiproliferative activity against MTAP knockout human HCT-116 cells assessed as reduction in cell viability incubated for 5 days followed by replacement with fresh medium containing compound and measured after 5 days by CTG assay; type: functional, cell-based
[7] = target: T1, Protein arginine N-methyltransferase 5; test: Inhibition of PRMT5 methyltransferase activity in human HCT-116 cells expressing wild type MTAP assessed as inhibition of PRMT5- mediated SDMA modification level incubated for 96 hrs by Western blot analysis; type: cell-based
[8] = Intrinsic clearance in mouse hepatocytes; type: ADME, cell-based, Hepatocyte; details: read-out: CLH
[9] = target: T1, Protein arginine N-methyltransferase 5
[10] = organism: Homo sapiens; test: Selectivity ratio of IC50 for inhibition of human PRMT5 co-complexed with MEP50 in absence of MTA to IC50 for inhibition of MTA-bound human PRMT5 co-complexed with MEP50
[11] = target: T1, Protein arginine N-methyltransferase 5; remark: listed apart in the source
[12] = Total clearance in CD-1 mouse at 3 mg/kg, iv measured upto 24 hrs by LC-MS/MS analysis; type: ADME, organism-based; details: in vivo
[13] = Volume of distribution at steady state in cynomolgus monkey at 2 mg/kg, iv measured upto 24 hrs by LC-MS/MS analysis; type: ADME, organism-based, Macaca fascicularis; details: in vivo, read-out: Vdss
[14] = AUCinfinity in beagle dog at 10 mg/kg, po administered via gavage measured upto 24 hrs by LC-MS/MS analysis; type: ADME, organism-based, Canis lupus familiaris; parameters: route oral, dose 10 mg/kg, time <=24; details: in vivo
[15] = Cmax in beagle dog at 10 mg/kg, po administered via gavage measured upto 24 hrs by LC-MS/MS analysis; type: ADME, organism-based, Canis lupus familiaris; parameters: route oral, dose 10 mg/kg, time <=24; details: in vivo
[16] = Oral bioavailability in CD-1 mouse at 30 mg/kg administered via gavage measured upto 24 hrs by LC-MS/MS analysis; type: ADME, organism-based; details: in vivo
[17] = Half life in beagle dog at 2 mg/kg, iv measured upto 24 hrs by LC-MS/MS analysis; type: ADME, organism-based, Canis lupus familiaris; details: in vivo
[18] = Half life in CD-1 mouse at 3 mg/kg, iv measured upto 24 hrs by LC-MS/MS analysis; type: ADME, organism-based; details: in vivo
[19] = Volume of distribution at steady state in beagle dog at 2 mg/kg, iv measured upto 24 hrs by LC-MS/MS analysis; type: ADME, organism-based, Canis lupus familiaris; details: in vivo, read-out: Vdss
[20] = Half life in cynomolgus monkey at 2 mg/kg, iv measured upto 24 hrs by LC-MS/MS analysis; type: ADME, organism-based, Macaca fascicularis; details: in vivo
[21] = Oral bioavailability in beagle dog at 10 mg/kg administered via gavage measured upto 24 hrs by LC-MS/MS analysis; type: ADME, organism-based, Canis lupus familiaris; details: in vivo
[22] = Total clearance in beagle dog at 2 mg/kg, iv measured upto 24 hrs by LC-MS/MS analysis; type: ADME, organism-based, Canis lupus familiaris; details: in vivo
[23] = Volume of distribution at steady state in CD-1 mouse at 3 mg/kg, iv measured upto 24 hrs by LC-MS/MS analysis; type: ADME, organism-based; details: in vivo, read-out: Vdss
[24] = Cmax in CD-1 mouse at 30 mg/kg, po administered via gavage measured upto 24 hrs by LC-MS/MS analysis; type: ADME, organism-based; parameters: route oral, dose 30 mg/kg, time <=24; details: in vivo
[25] = Total clearance in cynomolgus monkey at 2 mg/kg, iv measured upto 24 hrs by LC-MS/MS analysis; type: ADME, organism-based, Macaca fascicularis; details: in vivo
[26] = AUCinfinity in CD-1 mouse at 30 mg/kg, po administered via gavage measured upto 24 hrs by LC-MS/MS analysis; type: ADME, organism-based; parameters: route oral, dose 30 mg/kg, time <=24; details: in vivo
[27] = Oral bioavailability in cynomolgus monkey at 10 mg/kg administered via gavage measured upto 24 hrs by LC-MS/MS analysis; type: ADME, organism-based, Macaca fascicularis; details: in vivo
[28] = target: PRMT5/MEP50 complex (Homo sapiens, UniProt O14744); test: Inhibition of streptavidin sensor chip immobilized biotinylated human PRMT5/MEP50 assessed as dissociation constant by SPR analysis; type: protein-complex assay
Sequence of PRMT5/MEP50 complex (O14744 whole entry): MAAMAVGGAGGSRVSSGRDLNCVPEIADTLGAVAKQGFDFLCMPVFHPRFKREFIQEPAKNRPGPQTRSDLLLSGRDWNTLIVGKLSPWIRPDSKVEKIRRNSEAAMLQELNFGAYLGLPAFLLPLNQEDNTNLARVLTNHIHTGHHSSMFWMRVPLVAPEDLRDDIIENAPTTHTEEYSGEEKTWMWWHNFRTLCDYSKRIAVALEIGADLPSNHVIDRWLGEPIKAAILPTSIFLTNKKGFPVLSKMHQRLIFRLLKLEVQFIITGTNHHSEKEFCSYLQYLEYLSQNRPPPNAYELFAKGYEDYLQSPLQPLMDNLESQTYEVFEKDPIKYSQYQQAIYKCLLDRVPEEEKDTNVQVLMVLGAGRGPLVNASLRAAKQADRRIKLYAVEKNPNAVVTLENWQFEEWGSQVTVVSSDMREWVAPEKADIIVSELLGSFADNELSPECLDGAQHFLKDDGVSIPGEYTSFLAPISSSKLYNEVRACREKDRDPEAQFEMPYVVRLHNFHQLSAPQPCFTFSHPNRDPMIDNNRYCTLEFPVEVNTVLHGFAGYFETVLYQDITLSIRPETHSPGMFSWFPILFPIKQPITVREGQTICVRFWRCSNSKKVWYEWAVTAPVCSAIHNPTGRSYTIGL
Sequence of PRMT5/MEP50 complex (Q9BQA1 whole entry, further chain): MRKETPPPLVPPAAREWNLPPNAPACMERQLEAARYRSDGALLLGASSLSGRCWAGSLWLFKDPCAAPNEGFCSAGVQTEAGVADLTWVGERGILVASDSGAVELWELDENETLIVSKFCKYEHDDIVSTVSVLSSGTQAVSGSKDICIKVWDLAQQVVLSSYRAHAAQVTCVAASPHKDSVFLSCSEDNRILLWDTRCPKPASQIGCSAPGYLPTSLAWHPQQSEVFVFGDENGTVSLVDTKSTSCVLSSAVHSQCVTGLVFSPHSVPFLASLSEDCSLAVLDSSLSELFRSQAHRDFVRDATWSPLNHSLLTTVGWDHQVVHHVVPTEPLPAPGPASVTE

T1 sequence (O14744 whole entry): as the sequence (O14744 whole entry) above

IC50 [9] [nM]	IC50 [11] [nM]	Compound	efflux ratio at 2.5 h, 2 µM [1]	Papp A→B at 2.5 h, 2 µM [2] [×10⁻⁶ cm/s]	CLint scaled [3] [mL/min/kg]	IC50 [4]	IC50 [5] [nM]	IC50 [6]	IC50 [7]	CLint scaled [8] [mL/min/kg]	other results
670	11400	CC(C)n1cc(-c2ccc3c(=O)[nH]nc(CN)c3c2)cn1	20.1	1.31							Ratio IC50 [10]: 17
50	1290	Cc1c(-c2ccc3c(=O)[nH]nc(CN)c3c2)cnn1C	0.6	4.9							Ratio IC50 [10]: 26
		Cn1ncc(-c2ccc3c(=O)[nH]nc(CN)c3c2)c1-c1c(F)cc2ccccc2c1C#N	85	0.4	18	1020 nM and 5930 nM			569 nM and > 1000 nM	255	Ratio [1]: 136; Papp ([2]; mdck-mdr1, 2.5 h, 2 µM, 2.5 h): 0.3 ×10⁻⁶ cm/s; clearance [12]: 78 mL/min/kg; Vd [13]: 3.3 L/kg; AUC(0-inf) [14]: 4800 ng·h/mL; Cmax [15]: 880 ng/mL; bioavailability [16]: 34%; half-life [17]: 3.9 h; half-life [18]: 1.5 h; Vd [19]: 4.4 L/kg; half-life [20]: 2.6 h; bioavailability [21]: 60%; clearance [22]: 21 mL/min/kg; Vd [23]: 5.3 L/kg; Cmax [24]: 590 ng/mL; clearance [25]: 24 mL/min/kg; AUC(0-inf) [26]: 2730 ng·h/mL; bioavailability [27]: 28%
510	10600	CCn1cc(-c2ccc3c(=O)[nH]nc(CN)c3c2)cn1	6.2	2							Ratio IC50 [10]: 21
		Cn1ncc(-c2ccc3c(=O)[nH]nc(CN)c3c2)c1-c1c(F)ccc(OC2CC2)c1C#N	143	0.2	18	2180 nM and 3620 nM and 4210 nM		43 nM and 17 nM and 112 nM	1050 nM and 4480 nM	143	Ratio [1]: 123 and 150
		CSC[C@H]1O[C@@H](n2cnc3c(N)ncnc32)[C@H](O)[C@@H]1O [METHYLTHIOADENOSINE]									Kd [28]: 661 nM
910	19000	NCc1n[nH]c(=O)c2ccc(-c3cccnc3)cc12	0.7	2.8							Ratio IC50 [10]: 21
		C[S@@+](CC[C@H](N)C(=O)[O-])C[C@H]1O[C@@H](n2cnc3c(N)ncnc32)[C@H](O)[C@@H]1O									Kd [28]: 550 nM
30100	> 100000	NCc1n[nH]c(=O)c2ccc(-c3cccnn3)cc12	0.9	1.1							
		Cn1ncc(-c2ccc3c(=O)[nH]nc(CN)c3c2)c1-c1c(Cl)ccc(OC2CC2)c1C#N	131	0.3	< 18	1650 nM	11	91 nM	> 1000 nM	332	
95800	> 100000	NCc1n[nH]c(=O)c2ccc(-c3ccccn3)cc12	1.2	9.3							
		Cc1cc(OC2CC2)c(C#N)c(-c2c(-c3ccc4c(=O)[nH]nc(CN)c4c3)cnn2C)c1	62	0.4	21	1290 nM	9	77 nM		175	
		Cn1ncc(-c2ccc3c(=O)[nH]nc(CN)c3c2)c1-c1sc2ccccc2c1C#N	58	0.6	41	5800 nM	5	58 nM	> 1000 nM	280	

Compound	IC50 [9] [nM]	IC50 [11] [nM]	efflux ratio at 2.5 h, 2 µM [1]	Papp A→B at 2.5 h, 2 µM [2] [×10⁻⁶ cm/s]	CLint scaled [3] [mL/min/kg]	IC50 [4]	IC50 [5] [nM]	IC50 [6]	IC50 [7]	CLint scaled [8] [mL/min/kg]	other results
CCc1cccc(-c2c(-c3ccc4c(=O)[nH]nc(CN)c4c3)cnn2C)c1C#N	2000		35	0.3	18	> 10000 nM	79	175 nM	3210 nM	523	
Cn1ncc(-c2ccc3c(=O)[nH]nc(CN)c3c2)c1-c1c(F)cccc1C#N	4000		42	0.3	18	7440 nM	322	761 nM	> 10000 nM	171	
